The assay is described as follows: DPPH radical scavenging antioxidant test. Type of assay: biochemical. The settings on record: 517 nm; for Inhibition (radical scavenging inhibition): compound 3 μM in ethanol, 0.2 mL DPPH (0.75 mM), 30 min incubation in the dark. As to the method: The antioxidant properties of the 8-(3-bromobenzylideneamino)naphthalene-1,3-disulfonic acid were studied by adding 0.2 mL DPPH (0.75 mM)) to compound 8-(3-bromobenzylideneamino)naphthalene-1,3-disulfonic acid (III) (3 μM) in ethanol. After 30 min of incubation in the dark, the absorbance was read against a blank at 517 nm. Ascorbic acid (vitamin C) was used as standard antioxidants (positive control). A blank sample was prepared by 0.2 ml of DPPH in 3 ml ethanol. A negative control sample was run using ethanol instead of the sample. The radical scavenging inhibition was calculated using the following equation: […]

Structures are written as SMILES.

For the molecule `O=S(=O)(O)c1cc(S(=O)(=O)O)c2c(/N=C/c3cccc(Br)c3)cccc2c1` [Product III, 8-(3-bromobenzylideneamino)naphthalene-1,3-disulfonic acid], the “Inhibition (radical scavenging inhibition)” value was determined as 50%. For the same molecule, where the note is “DPPH in vitro test, vitamin C as positive control”, the “antioxidant potential in DPPH test compared to vitamin C (in words)” value was “high potential as an antioxidant compared to vitamin C”.
In the case of `O=C1O[C@H]([C@@H](O)CO)C(O)=C1O` [vit c, Ascorbic acid, reference compound], the “Inhibition (radical scavenging inhibition)” value is 74%.
